# Data published in patent US9296749B2, “Crystalline cis-(E)-4-(3-fluorophenyl)-2′,3′,4′,9′-tetrahydro-N,N-dimethyl-2′-(1-oxo-3-phenyl-2-propenyl)-spiro[cyclohexane-1,1′[1H]” (priority 2013, dated 2016).
# Columns and labels:
# Assay type in all cases: physicochemical
# [1] = Chemical stability of crystalline forms, open-vial storage (content by HPLC, crystalline form by XRPD)
# Description: Samples of compound 1 in different crystalline forms were stored in open vials under controlled conditions at different temperatures and rel. humidities for 28 days. Prior to storage and after 14 and 28 days the content of compound (1) in the sample was determined via HPLC and the crystalline form was measured via XRPD.
# [2] = Chemical stability in pharmaceutical compositions (excipient mixtures with 10% compound (1)); settings: listed as B
# Description: To test the chemical stability, i.e. compatibility of different crystalline forms of compound (1), solid multi component mixtures were prepared comprising well established excipients used for solid oral dosage form and having different functions therein. The single components of each mixture were exactly weighed and intensively triturated using a mortar and a pestle.
# 10 g of the final mixtures were separately filled into glass vials (open or closed) and stored under the conditions outlined below in table 13. Samples were taken and analyzed initially and after 1, 2 and 3 months with respect to the content of compound (1) within the mixtures.
# [3] = Dynamic vapor sorption (DVS), hygroscopicity
# Description: Crystalline forms were characterized by dynamic vapor sorption (DVS) using a Porotec DVS 1000 or a SMS DVS Intrinsic water vapor sorption analyzer. For the DVS analysis, a step width of 10% r.h. was applied allowing the samples to equilibrate and reach weight constancy (±0.002%) for at least 10 min on each step. All measurements were performed according to the following program: 50% r.h.→90% r.h., 90→0% r.h., 0%→90% r.h., 90%→50% r.h. A cycle with increasing humidity is also known as a sorption cycle, a cycle with decreasing humidity is also known as a desorption cycle. The details of the respective DVS measurements are shown below in table 51 and discussed further below.
# The hygroscopicity of the respective crystalline forms determined via the DVS measurements was classified according to the ranges for mass increase defined in the European Pharmacopoeia: very hygroscopic (vh): increase of the mass ≧15%; hygroscopic (h): increase of the mass is less than 15% and equal or greater than 2%; slightly hygroscopic (sh): increase of the mass is less than 2% and equal or greater than 0.2%; not hygroscopic (nh): increase of the mass is less than 0.2%; deliquescent (d): sufficient water is absorbed to form a liquid.
# [4] = Stability of crystalline form B on drying at reduced pressure; settings: dried at 50±2° C., about 7 mBar, 72 hours
# Description: The samples were let to cool to room temperature under ambient conditions before they were analyzed.
# [5] = Storage of crystalline form C, X-ray diffraction; settings: stored for up to 4 months
smiles,measurement,setting,value
"CN(C)[C@]1(c2cccc(F)c2)CC[C@]2(CC1)c1[nH]c3ccccc3c1CCN2C(=O)/C=C/c1ccccc1 [crystalline form B, cis-(E)-4-(3-Fluorophenyl)-2′,3′,4′,9′-tetrahydro-N,N-dimethyl-2′-(1-oxo-3-phenyl-2-propenyl)-spiro[cyclohexane-1,1′[1H]-pyrido[3,4-b]indol]-4-amine]",Content cmpd (1),"[1]; 40° C., 75% r.H., storage 0 d, listed as B",84.85%
same,Content cmpd (1),"[1]; 40° C., 75% r.H., storage 14 d, listed as B",84.21%
same,Content cmpd (1),"[1]; 40° C., 75% r.H., storage 28 d, listed as B",83.74%
same,Content cmpd (1),"[1]; 50° C., storage 0 d, listed as B",84.85%
same,Content cmpd (1),"[1]; 50° C., storage 14 d, listed as B",82.63%
same,Content cmpd (1),"[1]; 50° C., storage 28 d, listed as B",81.26%
same,content of compound (1) within the mixture,"[2]; Lactose monohydrate, PVP25, Crospovidone, Talcum, 40° C., 75% rel. hum., 0 month",99.57
same,content of compound (1) within the mixture,"[2]; Lactose monohydrate, PVP25, Crospovidone, Talcum, 40° C., 75% rel. hum., 1 month",99.22
same,content of compound (1) within the mixture,"[2]; Lactose monohydrate, PVP25, Crospovidone, Talcum, 40° C., 75% rel. hum., 2 months",99.05
same,content of compound (1) within the mixture,"[2]; Lactose monohydrate, PVP25, Crospovidone, Talcum, 40° C., 75% rel. hum., 3 months",96.87
same,content of compound (1) within the mixture,"[2]; Lactose monohydrate, PVP25, Crospovidone, Talcum, 50° C. dry, 0 month",99.57
same,content of compound (1) within the mixture,"[2]; Lactose monohydrate, PVP25, Crospovidone, Talcum, 50° C. dry, 1 month",95.82
same,content of compound (1) within the mixture,"[2]; Lactose monohydrate, PVP25, Crospovidone, Talcum, 50° C. dry, 2 months",91.04
same,content of compound (1) within the mixture,"[2]; Lactose monohydrate, PVP25, Crospovidone, Talcum, 50° C. dry, 3 months",85.33
same,content of compound (1) within the mixture,"[2]; Microcrystalline cellulose, HPMC 6 mPas, L-HPC LH21, magnesium stearate, 40° C., 75% rel. hum., 0 month",99.69
same,content of compound (1) within the mixture,"[2]; Microcrystalline cellulose, HPMC 6 mPas, L-HPC LH21, magnesium stearate, 40° C., 75% rel. hum., 1 month",99.53
same,content of compound (1) within the mixture,"[2]; Microcrystalline cellulose, HPMC 6 mPas, L-HPC LH21, magnesium stearate, 40° C., 75% rel. hum., 2 months",98.57
same,content of compound (1) within the mixture,"[2]; Microcrystalline cellulose, HPMC 6 mPas, L-HPC LH21, magnesium stearate, 40° C., 75% rel. hum., 3 months",99.39
same,content of compound (1) within the mixture,"[2]; Microcrystalline cellulose, HPMC 6 mPas, L-HPC LH21, magnesium stearate, 50° C. dry, 0 month",99.75
same,content of compound (1) within the mixture,"[2]; Microcrystalline cellulose, HPMC 6 mPas, L-HPC LH21, magnesium stearate, 50° C. dry, 1 month",95.74
same,content of compound (1) within the mixture,"[2]; Microcrystalline cellulose, HPMC 6 mPas, L-HPC LH21, magnesium stearate, 50° C. dry, 2 months",91.45
same,content of compound (1) within the mixture,"[2]; Microcrystalline cellulose, HPMC 6 mPas, L-HPC LH21, magnesium stearate, 50° C. dry, 3 months",87.34
same,hysteresis,[3]; between 10% to 40% relative humidity,> 0.5%
same,resulting crystalline form,[4],crystalline form B
"CN(C)[C@]1(c2cccc(F)c2)CC[C@]2(CC1)c1[nH]c3ccccc3c1CCN2C(=O)/C=C/c1ccccc1 [crystalline form C, cis-(E)-4-(3-Fluorophenyl)-2′,3′,4′,9′-tetrahydro-N,N-dimethyl-2′-(1-oxo-3-phenyl-2-propenyl)-spiro[cyclohexane-1,1′[1H]-pyrido[3,4-b]indol]-4-amine]",Content cmpd (1),"[1]; 40° C., 75% r.H., storage 0 d, listed as C",99.67%
same,Content cmpd (1),"[1]; 40° C., 75% r.H., storage 14 d, listed as C",99.68%
same,Content cmpd (1),"[1]; 40° C., 75% r.H., storage 28 d, listed as C",99.44%
same,Content cmpd (1),"[1]; 50° C., storage 0 d, listed as C",99.67%
same,Content cmpd (1),"[1]; 50° C., storage 14 d, listed as C",99.57%
same,Content cmpd (1),"[1]; 50° C., storage 28 d, listed as C",99.20%
same,weight loss,[3]; desorption cycle from 90 to 0% r.h.,about 6.6%
same,change in mass,[3]; sorption cycle from 50% to 90% relative humidity,no major change in mass
same,weight gain at 90%,[3]; subsequent sorption cycle,about 2.8%
same,conversion on storage,[5],converted to Polymorph I in three to four months
